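Abbreviation: GI50, concentration required for 50% inhibition of growth. At the TGI there is no net growth.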
How the values were obtained:
Test in all cases: NCI anticancer screen, dose series, 384-well format
SNB-75 CNS = test system: SNB-75 CNS
NCI-H322M lung = test system: NCI-H322M lung
IGROV1 ovarian = test system: IGROV1 ovarian
KM12 colon = test system: KM12 colon
A498 renal = test system: A498 renal
M14 melanoma = test system: M14 melanoma
SN12C renal = test system: SN12C renal
MOLT-4 leukemia = test system: MOLT-4 leukemia
NCI-H226 lung = test system: NCI-H226 lung
A549 NSCLC = test system: A549 NSCLC
OVCAR-3 ovarian = test system: OVCAR-3 ovarian
NCI-H460 NSCLC = test system: NCI-H460 NSCLC
MCF7 breast = test system: MCF7 breast
UACC-257 melanoma = test system: UACC-257 melanoma
UO-31 renal = test system: UO-31 renal
K-562 leukemia = test system: K-562 leukemia
MDA-MB-231 breast = test system: MDA-MB-231 breast
MDA-MB-435 melanoma = test system: MDA-MB-435 melanoma
HOP-92 NSCLC = test system: HOP-92 NSCLC
NCI-H23 lung = test system: NCI-H23 lung
CAKI-1 renal = test system: CAKI-1 renal
SR leukemia = test system: SR leukemia
TK-10 renal = test system: TK-10 renal
MDA-MB-468 breast = test system: MDA-MB-468 breast
RPMI-8226 leukemia = test system: RPMI-8226 leukemia
LOX IMVI melanoma = test system: LOX IMVI melanoma
NCI/ADR-RES ovarian = test system: NCI/ADR-RES ovarian
OVCAR-4 ovarian = test system: OVCAR-4 ovarian
PC-3 prostate = test system: PC-3 prostate
HS 578T breast = test system: HS 578T breast
SF-539 CNS = test system: SF-539 CNS
U251 glioblastoma = test system: U251 glioblastoma
SK-OV-3 ovarian = test system: SK-OV-3 ovarian
OVCAR-5 ovarian = test system: OVCAR-5 ovarian
SK-MEL-5 melanoma = test system: SK-MEL-5 melanoma
UACC-62 melanoma = test system: UACC-62 melanoma
SF-268 CNS = test system: SF-268 CNS
786-0 renal = test system: 786-0 renal
EKVX NSCLC = test system: EKVX NSCLC
SNB-19 CNS = test system: SNB-19 CNS
HOP-62 NSCLC = test system: HOP-62 NSCLC
ACHN renal = test system: ACHN renal
BT-549 breast = test system: BT-549 breast
RXF 393 renal = test system: RXF 393 renal
SF-295 CNS = test system: SF-295 CNS
HL-60(TB) leukemia = test system: HL-60(TB) leukemia
COLO 205 colon = test system: COLO 205 colon
HT29 colon = test system: HT29 colon
DU-145 prostate = test system: DU-145 prostate
OVCAR-8 ovarian = test system: OVCAR-8 ovarian
HCC-2998 colon = test system: HCC-2998 colon
HCT-15 colon = test system: HCT-15 colon
NCI-H522 lung = test system: NCI-H522 lung
MALME-3M melanoma = test system: MALME-3M melanoma
CCRF-CEM leukemia = test system: CCRF-CEM leukemia
T-47D breast = test system: T-47D breast
SK-MEL-28 melanoma = test system: SK-MEL-28 melanoma
SW-620 colon = test system: SW-620 colon

SMILES: COCCOC(=O)C1=C(C)NC2=C(C(=O)CC(c3ccccc3OC)C2)C1c1cccc(O)c1 (stereo unspecified)
- GI50 (SNB-75 CNS): 9.16 µM
- TGI (SNB-75 CNS): 98.6 µM
- GI50 (NCI-H322M lung): 12.7 µM
- TGI (NCI-H322M lung): > 100 µM
- GI50 (IGROV1 ovarian): 8.28 µM
- TGI (IGROV1 ovarian): 24.7 µM
- GI50 (KM12 colon): 9.21 µM
- TGI (KM12 colon): 26.2 µM
- GI50 (A498 renal): 10.6 µM
- TGI (A498 renal): 29.6 µM
- GI50 (M14 melanoma): 11 µM
- TGI (M14 melanoma): 34.9 µM
- GI50 (SN12C renal): 15.6 µM
- TGI (SN12C renal): 41.2 µM
- GI50 (MOLT-4 leukemia): 7.21 µM
- TGI (MOLT-4 leukemia): 20.7 µM
- GI50 (NCI-H226 lung): 4.91 µM
- TGI (NCI-H226 lung): 27.6 µM
- GI50 (A549 NSCLC): 6.88 µM
- TGI (A549 NSCLC): 31 µM
- GI50 (OVCAR-3 ovarian): 5.05 µM
- TGI (OVCAR-3 ovarian): 17.6 µM
- GI50 (NCI-H460 NSCLC): 14.7 µM
- TGI (NCI-H460 NSCLC): 30.8 µM
- GI50 (MCF7 breast): 2.68 µM
- TGI (MCF7 breast): 20.7 µM
- GI50 (UACC-257 melanoma): 5.14 µM
- TGI (UACC-257 melanoma): 22.8 µM
- GI50 (UO-31 renal): 34.6 µM
- TGI (UO-31 renal): > 100 µM
- GI50 (K-562 leukemia): 5.62 µM
- TGI (K-562 leukemia): 19.6 µM
- GI50 (MDA-MB-231 breast): 4.79 µM
- TGI (MDA-MB-231 breast): 60.4 µM
- GI50 (MDA-MB-435 melanoma): 9.55 µM
- TGI (MDA-MB-435 melanoma): 24.8 µM
- GI50 (HOP-92 NSCLC): 4.02 µM
- TGI (HOP-92 NSCLC): 21 µM
- GI50 (NCI-H23 lung): 8.58 µM
- TGI (NCI-H23 lung): 25.8 µM
- GI50 (CAKI-1 renal): 4.44 µM
- TGI (CAKI-1 renal): 27.9 µM
- GI50 (SR leukemia): 0.761 µM
- TGI (SR leukemia): 11.5 µM
- GI50 (TK-10 renal): 8.47 µM
- TGI (TK-10 renal): 28.1 µM
- GI50 (MDA-MB-468 breast): 2.5 µM
- TGI (MDA-MB-468 breast): 7.67 µM
- GI50 (RPMI-8226 leukemia): 1.08 µM
- TGI (RPMI-8226 leukemia): 4.87 µM
- GI50 (LOX IMVI melanoma): 3.75 µM
- TGI (LOX IMVI melanoma): 13.6 µM
- GI50 (NCI/ADR-RES ovarian): 46.3 µM
- TGI (NCI/ADR-RES ovarian): > 100 µM
- GI50 (OVCAR-4 ovarian): 2.14 µM
- TGI (OVCAR-4 ovarian): 8.76 µM
- GI50 (PC-3 prostate): 15.6 µM
- TGI (PC-3 prostate): 53.6 µM
- GI50 (HS 578T breast): 1.93 µM
- TGI (HS 578T breast): 8.82 µM
- GI50 (SF-539 CNS): 11.2 µM
- TGI (SF-539 CNS): 27.3 µM
- GI50 (U251 glioblastoma): 17.2 µM
- TGI (U251 glioblastoma): 44 µM
- GI50 (SK-OV-3 ovarian): 3.74 µM
- TGI (SK-OV-3 ovarian): 20.4 µM
- GI50 (OVCAR-5 ovarian): 12 µM
- TGI (OVCAR-5 ovarian): 43.1 µM
- GI50 (SK-MEL-5 melanoma): 4.43 µM
- TGI (SK-MEL-5 melanoma): 18.1 µM
- GI50 (UACC-62 melanoma): 2.38 µM
- TGI (UACC-62 melanoma): 16.6 µM
- GI50 (SF-268 CNS): 15.5 µM
- TGI (SF-268 CNS): 37 µM
- GI50 ([…]-0 renal): 5.49 µM
- TGI (786-0 renal): 24.2 µM
- GI50 (EKVX NSCLC): 17.6 µM
- TGI (EKVX NSCLC): 62.2 µM
- GI50 (SNB-19 CNS): 11.4 µM
- TGI (SNB-19 CNS): 38 µM
- GI50 (HOP-62 NSCLC): 5.19 µM
- TGI (HOP-62 NSCLC): 22.1 µM
- GI50 (ACHN renal): 17.3 µM
- TGI (ACHN renal): 55.6 µM
- GI50 (BT-549 breast): 2.55 µM
- TGI (BT-549 breast): 14.9 µM
- GI50 (RXF 393 renal): 16.2 µM
- TGI (RXF 393 renal): 34.9 µM
- GI50 (SF-295 CNS): 16.2 µM
- TGI (SF-295 CNS): 37.5 µM
- GI50 (HL-60(TB) leukemia): 1.27 µM
- TGI (HL-60(TB) leukemia): 3.17 µM
- GI50 (COLO 205 colon): 7.74 µM
- TGI (COLO 205 colon): 24.6 µM
- GI50 (HT29 colon): 6.75 µM
- TGI (HT29 colon): 22.2 µM
- GI50 (DU-145 prostate): 18.5 µM
- TGI (DU-145 prostate): 65 µM
- GI50 (OVCAR-8 ovarian): 6.94 µM
- TGI (OVCAR-8 ovarian): 21.6 µM
- GI50 (HCC-2998 colon): 3.67 µM
- TGI (HCC-2998 colon): 15.2 µM
- GI50 (HCT-15 colon): 11.6 µM
- TGI (HCT-15 colon): 27 µM
- GI50 (NCI-H522 lung): 2.39 µM
- TGI (NCI-H522 lung): 13.7 µM
- GI50 (MALME-3M melanoma): 4.14 µM
- TGI (MALME-3M melanoma): 23.2 µM
- GI50 (CCRF-CEM leukemia): 5.99 µM
- TGI (CCRF-CEM leukemia): 19.4 µM
- GI50 (T-47D breast): 8.93 µM
- TGI (T-47D breast): 66.7 µM
- GI50 (SK-MEL-28 melanoma): 11 µM
- TGI (SK-MEL-28 melanoma): 31 µM
- GI50 (SW-620 colon): 13 µM
- TGI (SW-620 colon): 27 µM

Source: PubChem BioAssay (NCI)
